Test results: patent US6355799B1, “Substituted benzene compounds, process for their preparation, and herbicidal and defoliant compositions containing them” (ISK Americas Incorporated, priority 1997, dated 2002)

Tests used:
Assay type in all cases: in vivo
[1] = tested on: redroot pigweed (Amaranthus retroflexus, AMARE); test: Pre-emerge test, greenhouse herbicide activity screening; conditions: rating scale 0-100, 14 days after application
Summary of the method: (§1)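 Visual ratings on a 0-100 scale (0 no damage, 100 all plants dead) were taken at 14 days after treatment. Rates of 15-1000 g ai/ha in acetone, 187 l/ha, were sprayed onto soil one day after planting (pre-emerge) or onto 2-3 leaf plants with 0.25% v/v surfactant (post-emerge).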

[2] = tested on: barnyardgrass (Echinochloa crus-galli, ECHCG); test: as above; conditions: rating scale 0-100, 14 days after application
Summary of the method: as §1

[3] = tested on: common ragweed (Ambrosia artemisizfolia L., AMBEL); test: as above; conditions: rating scale 0-100, 14 days after application
Summary of the method: as §1

[4] = tested on: green foxtail (Setaria viridis, SETVI); test: as above; conditions: rating scale 0-100, 14 days after application
Summary of the method: as §1

[5] = tested on: ivyleaf morningglory (Ipomoea hederacea, IPOHE); test: as above; conditions: rating scale 0-100, 14 days after application
Summary of the method: as §1

[6] = tested on: johnsongrass (Sorghum halepense, SORHA); test: as above; conditions: rating scale 0-100, 14 days after application
Summary of the method: as §1

[7] = tested on: lambsquarters (Chenopodium album, CHEAL); test: as above; conditions: rating scale 0-100, 14 days after application
Summary of the method: as §1

[8] = tested on: large crabgrass (Digitaria sanguinalis, DIGSA); test: as above; conditions: rating scale 0-100, 14 days after application
Summary of the method: as §1

[9] = tested on: sicklepod (Cassia obtusifolia, CASOB); test: as above; conditions: rating scale 0-100, 14 days after application
Summary of the method: as §1

[10] = tested on: velvetleaf (Abutilon theophrasti, ABUTH); test: as above; conditions: rating scale 0-100, 14 days after application
Summary of the method: as §1

[11] = tested on: field corn (Zea mays L., var. Dekalb 535, CORN); test: Pre-emerge test, crop safety; conditions: rating scale 0-100, 14 days after application
Summary of the method: as §1

[12] = tested on: upland rice (Oryza sp., var. Tebonnet, RICE); test: Pre-emerge test, crop safety; conditions: rating scale 0-100, 14 days after application
Summary of the method: as §1

[13] = tested on: barnyardgrass (Echinochloa crus-galli, ECHCG); test: Post-emerge test, greenhouse herbicide activity screening; conditions: rating scale 0-100 (0 no damage, 100 complete death), 14 days after application
Summary of the method: (§2)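 Compounds in acetone were track-sprayed at 15-1000 g ai/ha (187 l/ha) on sandy loam pots: pre-emerge one day after seeding, post-emerge at 2-3 leaf stage with 0.25% v/v non-ionic surfactant. Phytotoxicity was rated 14 days later on a 0 (no damage) to 100 (complete death) scale.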

[14] = tested on: green foxtail (Setaria viridis, SETVI); test: as above; conditions: rating scale 0-100 (0 no damage, 100 complete death), 14 days after application
Summary of the method: as §2

[15] = tested on: ivyleaf morningglory (Ipomoea hederacea, IPOHE); test: as above; conditions: rating scale 0-100 (0 no damage, 100 complete death), 14 days after application
Summary of the method: as §2

[16] = tested on: johnsongrass (Sorghum halepense, SORHA); test: as above; conditions: rating scale 0-100 (0 no damage, 100 complete death), 14 days after application
Summary of the method: as §2

[17] = tested on: lambsquarters (Chenopodium album, CHEAL); test: as above; conditions: rating scale 0-100 (0 no damage, 100 complete death), 14 days after application
Summary of the method: as §2

[18] = tested on: large crabgrass (Digitaria sanguinalis, DIGSA); test: as above; conditions: rating scale 0-100 (0 no damage, 100 complete death), 14 days after application
Summary of the method: as §2

[19] = tested on: redroot pigweed (Amaranthus retroflexus, AMARE); test: as above; conditions: rating scale 0-100 (0 no damage, 100 complete death), 14 days after application
Summary of the method: as §2

[20] = tested on: sicklepod (Cassia obtusifolia, CASOB); test: as above; conditions: rating scale 0-100 (0 no damage, 100 complete death), 14 days after application
Summary of the method: as §2

[21] = tested on: velvetleaf (Abutilon theophrasti, ABUTH); test: as above; conditions: rating scale 0-100 (0 no damage, 100 complete death), 14 days after application
Summary of the method: as §2

[22] = tested on: field corn (Zea mays L., var. Dekalb 535, CORN); test: Post-emerge test, crop safety; conditions: rating scale 0-100 (0 no damage, 100 complete death), 14 days after application
Summary of the method: as §1

[23] = tested on: upland rice (Oryza sp., var. Tebonnet, RICE); test: Post-emerge test, crop safety; conditions: rating scale 0-100 (0 no damage, 100 complete death), 14 days after application
Summary of the method: as §1

C=CCOC(=O)C(C)(Cl)Cc1c(OC)c(Cl)cc(F)c1-n1c(=O)cc(C(F)(F)F)n(C)c1=O (stereo not shown) [14-43]
20: Pre-emerge herbicidal activity, phytotoxicity rating SORHA ([6]; 63 g ai/ha) | Pre-emerge phytotoxicity rating, crop damage CORN ([11]; 250 g ai/ha)
30: Pre-emerge herbicidal activity, phytotoxicity rating SETVI ([4]; 63 g ai/ha) | Pre-emerge herbicidal activity, phytotoxicity rating SORHA ([6]; 250 g ai/ha)
0: Pre-emerge herbicidal activity, phytotoxicity rating ECHCG ([2]; 63 g ai/ha) | Pre-emerge herbicidal activity, phytotoxicity rating AMBEL ([3]; 63 g ai/ha) | Pre-emerge herbicidal activity, phytotoxicity rating IPOHE ([5]; 63 g ai/ha) | Pre-emerge herbicidal activity, phytotoxicity rating IPOHE ([5]; 250 g ai/ha) | Pre-emerge herbicidal activity, phytotoxicity rating CASOB ([9]; 63 g ai/ha) | Pre-emerge herbicidal activity, phytotoxicity rating CASOB ([9]; 250 g ai/ha) | Pre-emerge phytotoxicity rating, crop damage CORN ([11]; 63 g ai/ha)
80: Pre-emerge herbicidal activity, phytotoxicity rating ECHCG ([2]; 250 g ai/ha) | Pre-emerge herbicidal activity, phytotoxicity rating DIGSA ([8]; 63 g ai/ha) | Post-emerge Herbicidal Activity, phytotoxicity rating SORHA ([16]; Rate 63 g ai/ha) | Post-emerge Herbicidal Activity, phytotoxicity rating DIGSA ([18]; Rate 63 g ai/ha)
10: Pre-emerge phytotoxicity rating, crop damage RICE ([12]; 63 g ai/ha)
40: Pre-emerge phytotoxicity rating, crop damage RICE ([12]; 250 g ai/ha) | Post-emerge Herbicidal Activity, phytotoxicity rating CASOB ([20]; Rate 63 g ai/ha)
100: Pre-emerge herbicidal activity, phytotoxicity rating AMARE ([1]; 63 g ai/ha) | Pre-emerge herbicidal activity, phytotoxicity rating AMARE ([1]; 250 g ai/ha) | Pre-emerge herbicidal activity, phytotoxicity rating AMBEL ([3]; 250 g ai/ha) | Pre-emerge herbicidal activity, phytotoxicity rating CHEAL ([7]; 63 g ai/ha) | Pre-emerge herbicidal activity, phytotoxicity rating CHEAL ([7]; 250 g ai/ha) | Pre-emerge herbicidal activity, phytotoxicity rating DIGSA ([8]; 250 g ai/ha) | Pre-emerge herbicidal activity, phytotoxicity rating ABUTH ([10]; 250 g ai/ha) | Post-emerge Herbicidal Activity, phytotoxicity rating ECHCG ([13]; Rate 63 g ai/ha) | Post-emerge Herbicidal Activity, phytotoxicity rating ECHCG ([13]; Rate 250 g ai/ha) | Post-emerge Herbicidal Activity, phytotoxicity rating SETVI ([14]; Rate 250 g ai/ha) | Post-emerge Herbicidal Activity, phytotoxicity rating IPOHE ([15]; Rate 250 g ai/ha) | Post-emerge Herbicidal Activity, phytotoxicity rating CHEAL ([17]; Rate 63 g ai/ha) | Post-emerge Herbicidal Activity, phytotoxicity rating CHEAL ([17]; Rate 250 g ai/ha) | Post-emerge Herbicidal Activity, phytotoxicity rating DIGSA ([18]; Rate 250 g ai/ha) | Post-emerge Herbicidal Activity, phytotoxicity rating AMARE ([19]; Rate 63 g ai/ha) | Post-emerge Herbicidal Activity, phytotoxicity rating AMARE ([19]; Rate 250 g ai/ha) | Post-emerge Herbicidal Activity, phytotoxicity rating ABUTH ([21]; Rate 63 g ai/ha) | Post-emerge Herbicidal Activity, phytotoxicity rating ABUTH ([21]; Rate 250 g ai/ha) | Post-emerge phytotoxicity rating CORN (crop damage) ([22]; Rate 250 g ai/ha) | Post-emerge phytotoxicity rating RICE (crop damage) ([23]; Rate 250 g ai/ha)
95: Pre-emerge herbicidal activity, phytotoxicity rating SETVI ([4]; 250 g ai/ha) | Post-emerge Herbicidal Activity, phytotoxicity rating IPOHE ([15]; Rate 63 g ai/ha) | Post-emerge Herbicidal Activity, phytotoxicity rating SORHA ([16]; Rate 250 g ai/ha) | Post-emerge phytotoxicity rating CORN (crop damage) ([22]; Rate 63 g ai/ha) | Post-emerge phytotoxicity rating RICE (crop damage) ([23]; Rate 63 g ai/ha)
90: Pre-emerge herbicidal activity, phytotoxicity rating ABUTH ([10]; 63 g ai/ha) | Post-emerge Herbicidal Activity, phytotoxicity rating SETVI ([14]; Rate 63 g ai/ha) | Post-emerge Herbicidal Activity, phytotoxicity rating CASOB ([20]; Rate 250 g ai/ha)
